Results published in patent US11773078B2, “Furin inhibitors” (Glaxosmithkline Intellectual Property Development Limited, priority 2018, dated 2023).
Counter-ions that a name gives are not always drawn.

Legend:
[1] = biological target: T1, Furin (108-574-Tev-Flag-His) enzyme (Homo sapiens, UniProt P09958); assay: Furin enzyme assay; assay type: biochemical; details: for IC50: read-out: furin enzyme pIC50 (converted)
T1 construct: Furin (108-574-Tev-Flag-His) enzyme was expressed and purified from CHO cells; TEV cleavage site (C); FLAG (C); His (C); made in house; host or cells: CHO cells
Procedure, shortened: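 CHO-expressed, purified furin construct at 40 pM in 100 mM HEPES pH7.5, 1 mM CaCl2, 0.005% Triton X-100. Eleven-point 1:3 series, 0.00017–10 μM final, incubated 2 h at room temperature and read on Envision. pXC50 from four-parameter fit.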

[2] = biological target: T2, furin (endogenous protease) in U20S cells (Homo sapiens, UniProt P09958); assay: Furin cell-based assay (image-based, Golgi-targeted GFP with BMP10 furin/PCSK cleavage site); details: 24-hour incubation, read-out: furin golgi cell pXC50 (converted);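 note: Read-out is mean GFP fluorescence of Golgi puncta per cell by high-content imaging, retained when furin inhibited, over an eleven-point 0.00017–10 µM series, four-parameter fit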
T2 construct: the endogenous protease cleaves GFP; endogenous in cells; host or cells: U2OS cells transduced with a BacMam reporter
T2 sequence (P09958 108-794): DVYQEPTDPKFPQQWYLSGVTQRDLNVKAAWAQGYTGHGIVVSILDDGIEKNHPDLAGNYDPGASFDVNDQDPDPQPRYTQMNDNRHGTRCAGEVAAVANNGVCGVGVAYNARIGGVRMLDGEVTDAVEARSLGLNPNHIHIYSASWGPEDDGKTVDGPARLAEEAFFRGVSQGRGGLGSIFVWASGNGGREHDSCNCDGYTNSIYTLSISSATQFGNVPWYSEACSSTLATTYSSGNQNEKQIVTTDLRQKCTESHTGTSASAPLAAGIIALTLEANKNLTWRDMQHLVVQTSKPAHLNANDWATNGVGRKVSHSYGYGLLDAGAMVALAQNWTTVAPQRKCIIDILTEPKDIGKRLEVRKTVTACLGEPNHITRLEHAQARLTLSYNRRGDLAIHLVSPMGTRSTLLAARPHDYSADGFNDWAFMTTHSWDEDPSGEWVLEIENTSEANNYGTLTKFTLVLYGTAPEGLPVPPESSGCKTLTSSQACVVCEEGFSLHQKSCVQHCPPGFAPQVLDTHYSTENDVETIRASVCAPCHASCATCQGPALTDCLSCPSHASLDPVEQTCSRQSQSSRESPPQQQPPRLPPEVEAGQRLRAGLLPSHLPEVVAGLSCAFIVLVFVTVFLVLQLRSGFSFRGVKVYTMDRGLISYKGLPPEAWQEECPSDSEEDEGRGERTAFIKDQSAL

T1 sequence (P09958 108-574): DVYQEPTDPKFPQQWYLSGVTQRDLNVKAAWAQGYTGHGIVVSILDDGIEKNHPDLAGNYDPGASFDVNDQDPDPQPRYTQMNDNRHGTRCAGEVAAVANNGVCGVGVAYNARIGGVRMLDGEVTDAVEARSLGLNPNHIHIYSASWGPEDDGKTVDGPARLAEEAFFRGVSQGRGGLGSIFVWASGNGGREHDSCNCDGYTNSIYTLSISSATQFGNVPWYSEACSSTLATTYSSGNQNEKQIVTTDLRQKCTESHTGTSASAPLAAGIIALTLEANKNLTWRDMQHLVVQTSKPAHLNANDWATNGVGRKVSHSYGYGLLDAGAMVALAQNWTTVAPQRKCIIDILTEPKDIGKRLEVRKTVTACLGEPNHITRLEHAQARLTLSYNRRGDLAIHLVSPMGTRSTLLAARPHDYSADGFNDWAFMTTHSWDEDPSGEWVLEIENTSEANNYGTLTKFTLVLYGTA

SMILES: CC(=O)NCC1CCN(Cc2cc(Oc3ccc(N4CCCNCC4)nc3)nc(-c3cc(Cl)cc(Cl)c3)c2)CC1 [Example 192, N-((1-((2-((6-(1,4-diazepan-1-yl)pyridin-3-yl)oxy)-6-(3,5-dichlorophenyl)pyridin-4-yl)methyl)piperidin-4-yl)methyl)acetamide]
- furin enzyme pIC50 [1]: 10.4
- EC50 [2]: 15.8 nM

SMILES: O=C(O)CCC1CCN(Cc2cc(Oc3cnc(N4CCN(CCO)CC4)nc3)cc(-c3cc(Cl)cc(Cl)c3)c2)CC1 [Example 114, 3-(1-((3′,5′-Dichloro-5-((2-(4-(2-hydroxyethyl)piperazin-1-yl)pyrimidin-5-yl)oxy)-[1,1′-biphenyl]-3-yl)methyl)piperidin-4-yl)propanoic acid]
- IC50 [1]: < 0.158 nM
- EC50 [2]: 20 nM

SMILES: CC(=O)NCC1CCN(Cc2cc(Oc3ccc(N4CCN(CC[S+](C)[O-])CC4)nc3)nc(-c3cc(Cl)cc(Cl)c3)c2)CC1 (stereo not shown) [Example 15, N-((1-((2-(3,5-Dichlorophenyl)-6-((6-(4-(2-(methylsulfinyl)ethyl)piperazin-1-yl)pyridin-3-yl)oxy)pyridin-4-yl)methyl)piperidin-4-yl)methyl)acetamide, 4 hydrochloride]
- furin enzyme pIC50 [1]: 8.5
- EC50 [2]: 25.1 nM

SMILES: CC(=O)NCC1CCN(Cc2cc(Oc3ccc(N4CCN(C(C)CCS(C)(=O)=O)CC4)nc3)nc(-c3cc(Cl)cc(Cl)c3)c2)CC1 (stereo not shown) [Example 16]
- furin enzyme pIC50 [1]: 9
- EC50 [2]: 1.26 nM

SMILES: C[C@@H](CC1CCN(Cc2cc(Oc3ccc(N4CCN(C)CC4)nn3)nc(-c3cc(Cl)cc(Cl)c3)c2)CC1)C(=O)O [Example 365, (S)-3-(1-((2-(3,5-dichlorophenyl)-6-((6-(4-methylpiperazin-1-yl)pyridazin-3-yl)oxy)pyridin-4-yl)methyl)piperidin-4-yl)-2-methylpropanoic acid]
- furin enzyme pIC50 [1]: 9.9
- EC50 [2]: 126 nM

SMILES: CNC(=O)OCC1CCN(Cc2cc(Oc3cnc(N4CCN(C(C)CCC(=O)O)CC4)nc3)nc(-c3cc(Cl)cc(Cl)c3)c2)CC1 (stereo not shown) [Example 208]
- IC50 [1]: 0.0126 nM
- EC50 [2]: 10 nM

SMILES: CN1C2CC1CN(c1cnc(Oc3cc(CN4CCC(CC(=O)O)CC4)cc(-c4cc(Cl)cc(Cl)c4)n3)cn1)C2 [Example 352, 2-(1-((2-(3,5-dichlorophenyl)-6-((5-(6-methyl-3,6-diazabicyclo[3.1.1]heptan-3-yl)pyrazin-2-yl)oxy)pyridin-4-yl)methyl)piperidin-4-yl)acetic acid]
- furin enzyme pIC50 [1]: 8.2
- EC50 [2]: 50.1 nM

SMILES: CNC(=O)OCC1CCN(Cc2cc(Oc3cnc(N4CCN(C[C@@H](C)O)CC4)nc3)nc(-c3cc(Cl)cc(Cl)c3)c2)CC1 [Example 308, (R)-(1-((2-(3,5-dichlorophenyl)-6-((2-(4-(2-hydroxypropyl)piperazin-1-yl)pyrimidin-5-yl)oxy)pyridin-4-yl)methyl)piperidin-4-yl)methyl methylcarbamate]
- furin enzyme pIC50 [1]: 9.3
- EC50 [2]: 12.6 nM

SMILES: CNCc1cc(Oc2ccc(N3CCCNCC3)nc2)cc(-c2cc(Cl)cc(Cl)c2)c1 [Example 103]
- furin enzyme pIC50 [1]: 8.9
- EC50 [2]: 63.1 nM

SMILES: CNC(=O)OCC1CCN(Cc2cc(Oc3ccc(N4CCN(C[C@@H](C)O)CC4)nc3)nc(-c3cc(Cl)cc(Cl)c3)c2)CC1 [Example 305, (R)-(1-((2-(3,5-dichlorophenyl)-6-((6-(4-(2-hydroxypropyl)piperazin-1-yl)pyridin-3-yl)oxy)pyridin-4-yl)methyl)piperidin-4-yl)methyl methylcarbamate]
- furin enzyme pIC50 [1]: 8.7
- EC50 [2]: 10 nM

SMILES: CC(=O)NCC1CCN(Cc2cc(Oc3ccc(N4CCN(CCC(=O)O)CC4)nc3)nc(-c3cc(F)cc(Cl)c3)c2)CC1 [Example 115, 3-(4-(5-((4-((4-(Acetamidomethyl)piperidin-1-yl)methyl)-6-(3-chloro-5-fluorophenyl)pyridin-2-yl)oxy)pyridin-2-yl)piperazin-1-yl)propanoic acid]
- furin enzyme pIC50 [1]: 8.3
- EC50 [2]: 251 nM

SMILES: FC1CCN(Cc2cc(Oc3cnc(N4CCN5CCC4C5)nc3)nc(-c3cc(Cl)cc(Cl)c3)c2)CC1 (stereo not shown) [Example 338, 4-(5-((6-(3,5-dichlorophenyl)-4-((4-fluoropiperidin-1-yl)methyl)pyridin-2-yl)oxy)pyrimidin-2-yl)-1,4-diazabicyclo[3.2.1]octane]
- furin enzyme pIC50 [1]: 8
- EC50 [2]: 12.6 nM

SMILES: CC(=O)NCC1CCN(Cc2cc(Oc3cnc(N4CCN(C)CC4)cn3)nc(-c3cc(Cl)cc(Cl)c3)c2)CC1 [Example 110, N-((1-((2-(3,5-Dichlorophenyl)-6-((5-(4-methylpiperazin-1-yl)pyrazin-2-yl)oxy)pyridin-4-yl)methyl)piperidin-4-yl)methyl)acetamide]
- furin enzyme pIC50 [1]: 10.3
- EC50 [2]: 2.51 nM

SMILES: O=C(O)CC1CCN(Cc2cc(Oc3cnc(N4CCN(CC5(O)CC5)CC4)nc3)nc(-c3cc(Cl)cc(Cl)c3)c2)CC1 [Example 229, 2-(1-((2-(3,5-dichlorophenyl)-6-((2-(4-((1-hydroxycyclopropyl)methyl)piperazin-1-yl)pyrimidin-5-yl)oxy)pyridin-4-yl)methyl)piperidin-4-yl)acetic acid]
- furin enzyme pIC50 [1]: 8.6
- EC50 [2]: 20 nM

SMILES: C[C@]1(O)C[C@@H](N2CCN(c3ncc(Oc4cc(CN5CCC(CC(=O)O)CC5)cc(-c5cc(Cl)cc(Cl)c5)n4)cn3)CC2)C1 [Example 24, 2-(1-((2-(3,5-dichlorophenyl)-6-((2-(4-((1s,3s)-3-hydroxy-3-methylcyclobutyl)piperazin-1-yl)pyrimidin-5-yl)oxy)pyridin-4-yl)methyl)piperidin-4-yl)acetic acid]
- furin enzyme pIC50 [1]: 8.6
- EC50 [2]: 12.6 nM

SMILES: CNCc1cc(Oc2ccc(N3CCN(CCC(=O)O)CC3)nc2)nc(-c2cc(Cl)cc(Cl)c2)c1 [Example 50, 3-(4-(5-((6-(3,5-Dichlorophenyl)-4-((methylamino)methyl)pyridin-2-yl)oxy)pyridin-2-yl)piperazin-1-yl)propanoic acid, 4 hydrochloride]
- furin enzyme pIC50 [1]: 8.1
- EC50 [2]: 126 nM

SMILES: CNC(=O)NCC1(O)CCN(Cc2cc(Oc3cnc(N4CCN(CCC(N)=O)CC4)nc3)nc(-c3cc(Cl)cc(Cl)c3)c2)CC1 [Example 265, 3-(4-(5-((6-(3,5-dichlorophenyl)-4-((4-hydroxy-4-((3-methylureido)methyl)piperidin-1-yl)methyl)pyridin-2-yl)oxy)pyrimidin-2-yl)piperazin-1-yl)propanamide]
- furin enzyme pIC50 [1]: 9.4
- EC50 [2]: 7.94 nM

SMILES: COC(=O)NC(=O)NCC1CCN(Cc2cc(Oc3cnc(N4CCN(C)CC4)nc3)nc(-c3cc(Cl)cc(Cl)c3)c2)CC1 [Example 325]
- furin enzyme pIC50 [1]: 8.3
- EC50 [2]: 6.31 nM

SMILES: CC(=O)NCC1CCN(Cc2cc(Oc3cnc(N4CCN(C5CC(C(=O)O)C5)CC4)nc3)nc(-c3cc(Cl)cc(Cl)c3)c2)CC1 (stereo not shown) [Example 216, 3-(4-(5-((4-((4-(acetamidomethyl)piperidin-1-yl)methyl)-6-(3,5-dichlorophenyl)pyridin-2-yl)oxy)pyrimidin-2-yl)piperazin-1-yl)cyclobutanecarboxylic acid]
- furin enzyme pIC50 [1]: 10.2
- EC50 [2]: 15.8 nM

SMILES: CN1CCN(c2ccc(Oc3nc(-c4cc(Cl)cc(Cl)c4)cc(CN4CCC(CC(=O)O)CC4)c3F)cn2)CC1 [Example 377, 2-(1-((6-(3,5-Dichlorophenyl)-3-fluoro-2-((6-(4-methylpiperazin-1-yl)pyridin-3-yl)oxy)pyridin-4-yl)methyl)piperidin-4-yl)acetic acid, 4 hydrochloride]
- furin enzyme pIC50 [1]: 8.6
- EC50 [2]: 25.1 nM

SMILES: CC(=O)NC(=O)NCC1CCN(Cc2cc(Oc3cnc(N4CCN(C)CC4)nc3)nc(-c3cc(Cl)cc(Cl)c3)c2)CC1 [Example 327]
- furin enzyme pIC50 [1]: 8.6
- EC50 [2]: 3.16 nM

SMILES: O=C(O)CC1CCN(Cc2cc(Oc3cnc(N4CCCNCC4)nc3)nc(-c3cc(Cl)cc(Cl)c3)c2)CC1 [Example 132, 2-(1-((2-((2-(1,4-diazepan-1-yl)pyrimidin-5-yl)oxy)-6-(3,5-dichlorophenyl)pyridin-4-yl)methyl)piperidin-4-yl)acetic acid]
- furin enzyme pIC50 [1]: 8.8
- EC50 [2]: 63.1 nM

SMILES: CNCCC(C)N1CCN(c2ncc(Oc3cc(CN4CCC(CC(=O)O)CC4)cc(-c4cc(Cl)cc(Cl)c4)n3)cn2)CC1 (stereo not shown) [Example 239, 2-(1-((2-(3,5-Dichlorophenyl)-6-((2-(4-(4-(methylamino)butan-2-yl)piperazin-1-yl)pyrimidin-5-yl)oxy)pyridin-4-yl)methyl)piperidin-4-yl)acetic acid]
- furin enzyme pIC50 [1]: 8
- EC50 [2]: 25.1 nM

SMILES: CC(=O)NCC1CCN(Cc2cc(Oc3cnc(N4CCN(C(C)CCS(C)(=O)=O)CC4)nc3)nc(-c3cc(F)cc(Cl)c3)c2)CC1 (stereo not shown) [Example 372, N-((1-((2-(3-Chloro-5-fluorophenyl)-6-((2-(4-(4-(methylsulfonyl)butan-2-yl)piperazin-1-yl)pyrimidin-5-yl)oxy)pyridin-4-yl)methyl)piperidin-4-yl)methyl)acetamide]
- furin enzyme pIC50 [1]: 8.8
- EC50 [2]: 3.98 nM

SMILES: CC(=O)NCC1CCN(Cc2cc(Oc3ccc(N4CCN(CCN(C)S(C)(=O)=O)CC4)nc3)nc(-c3cc(Cl)cc(Cl)c3)c2)CC1 [Example 32, N-((1-((2-(3,5-dichlorophenyl)-6-((6-(4-(2-(N-methylmethylsulfonamido)ethyl)piperazin-1-yl)pyridin-3-yl)oxy)pyridin-4-yl)methyl)piperidin-4-yl)methyl)acetamide]
- furin enzyme pIC50 [1]: 8.7
- EC50 [2]: 10 nM

SMILES: CN1CCCN(c2ncc(Oc3cc(CN4CCC(CC(=O)O)CC4)cc(-c4cc(F)cc(Cl)c4)n3)cn2)CC1 [Example 374, 2-(1-((2-(3-chloro-5-fluorophenyl)-6-((2-(4-methyl-1,4-diazepan-1-yl)pyrimidin-5-yl)oxy)pyridin-4-yl)methyl)piperidin-4-yl)acetic acid]
- furin enzyme pIC50 [1]: 7.9
- EC50 [2]: 158 nM
